These results are taken from patent US11498903B2 (BRISTOL-MYERS SQUIBB COMPANY, priority 2017, dated 2022).

In the assay the target is T1, human APJ receptor (Homo sapiens, UniProt P35414).
T1 construct: expressed in transfected cells
T1 sequence (P35414 1-380): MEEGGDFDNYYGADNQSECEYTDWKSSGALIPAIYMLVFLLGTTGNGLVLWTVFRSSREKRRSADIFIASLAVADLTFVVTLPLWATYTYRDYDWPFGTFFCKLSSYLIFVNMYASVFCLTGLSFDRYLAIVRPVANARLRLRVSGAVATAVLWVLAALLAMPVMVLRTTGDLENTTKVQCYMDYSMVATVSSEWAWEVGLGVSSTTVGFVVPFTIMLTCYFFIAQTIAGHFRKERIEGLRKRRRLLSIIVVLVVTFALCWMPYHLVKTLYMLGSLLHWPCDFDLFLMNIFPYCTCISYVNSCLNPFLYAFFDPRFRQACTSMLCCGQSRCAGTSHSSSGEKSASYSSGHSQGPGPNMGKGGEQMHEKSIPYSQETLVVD
Put plainly: Intracellular cAMP accumulation assay (APJ hcAMP, HTRF). In kind it is cell-based. A digest of the protocol:
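HEK293 cells stably expressing human APJ, 5,000/well, incubated 30 min at room temperature with compound plus […] and 2 μM forskolin. cAMP read by HTRF against a cAMP standard curve; EC50 from variable-slope sigmoidal fit, Ymax as % of (Pyr1)apelin-13 inhibition.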

[1] abbreviates: Table 1, HEK293 cells stably expressing human APJ receptor, inhibition of forskolin-mediated cAMP production, read-out: APJ hcAMP EC50.
Where [2] appears, read: Table 3, HEK293 cells stably expressing human APJ receptor, read-out: APJ cAMP Human EC50.
[3] abbreviates: human APJ, cAMP, potency range class, read-out: APJ cAMP Human EC50.

The structures appear in SMILES notation. Where two headings read alike, the source gives them in different places.

For `COc1ccc(NC(=O)c2ccc(-c3c(Cl)cccc3-c3nc4cc(F)c(OC)cc4[nH]3)c(C(=O)O)c2)cc1` [Example 125, (S)-2′-chloro-6′-(5-fluoro-6-methoxy-1H-1,3-benzodiazol-2-yl)-4-[(4-methoxyphenyl)carbamoyl]-[1,1′-biphenyl]-2-carboxylic acid], the EC50 under setting [1] is 0.01 to 0.1 µM and the EC50 under setting [2] is 0.01 to 0.1 µM.

In the case of `COc1cc2[nH]c(-c3cccc(Cl)c3-c3ccc(C(=O)N4CCC(Cc5ccccc5)CC4)cc3C(=O)O)nc2cc1F` [Example 126, (S)-4-(4-benzylpiperidine-1-carbonyl)-2′-chloro-6′-(5-fluoro-6-methoxy-1H-1,3-benzodiazol-2-yl)-[1,1′-biphenyl]-2-carboxylic acid], the EC50 under setting [2] lay in the range of 0.101 to 0.5 µM.

Turning to `CCC[C@@H](NC(=O)c1ccc(-c2c(Cl)cccc2-c2nc3cc(OC)c(F)cc3[nH]2)c(C(=O)NOC)c1)c1ccccc1` [Example 127, 2′-chloro-6′-(6-fluoro-5-methoxy-1H-1,3-benzodiazol-2-yl)-N2-methoxy-N4-[(1R)-1-phenylbutyl]-[1,1′-biphenyl]-2,4-dicarboxamide], the concentration for a half-maximal effect (EC50) under setting [2] was < 0.01 µM.

Take `CCC[C@@H](NC(=O)c1ccc(-c2c(Cl)cccc2-c2nc3ccccc3[nH]2)c(-c2n[nH]c(=O)o2)c1)c1ccccc1` [Example 129, 2′-(1H-1,3-benzodiazol-2-yl)-6′-chloro-2-(5-oxo-4,5-dihydro-1,3,4-oxadiazol-2-yl)-N-[(1R)-1-phenylbutyl]-[1,1′-biphenyl]-4-carboxamide]: the 50% effective concentration (EC50) under setting [2] was 0.01 to 0.1 µM.

Turning to `CCC[C@@H](NC(=O)c1ccc(-c2c(Cl)cccc2-c2nc3cc(OC)c(F)cc3[nH]2)c(-c2n[nH]c(=O)o2)c1)c1ccccc1` [Example 130, 2′-chloro-6′-(6-fluoro-5-methoxy-1H-1,3-benzodiazol-2-yl)-2-(5-oxo-4,5-dihydro-1,3,4-oxadiazol-2-yl)-N-[(1R)-1-phenylbutyl]-[1,1′-biphenyl]-4-carboxamide], under setting [2], the concentration for a half-maximal effect (EC50) is < 0.01 µM.

Turning to `CCC[C@@H](NC(=O)c1ccc(-c2c(C)cccc2-c2nc3ccccc3n2C)c(C(=O)O)c1)c1ccccc1` [Example 137, 2′-methyl-6′-(1-methyl-1H-1,3-benzodiazol-2-yl)-4-{[(1R)-1-phenylbutyl]carbamoyl}-[1,1′-biphenyl]-2-carboxylic acid], the EC50 is, setting by setting: under setting [1], 0.01 to 0.1 µM; under setting [2], 0.01 to 0.1 µM.

`COC[C@@H](NC(=O)c1ccc(-c2cc(Cl)ccc2-c2nc3ccccc3n2C)c(C(=O)O)c1)c1ccccc1` [Example 138, 5′-chloro-4-{[(1S)-2-methoxy-1-phenylethyl]carbamoyl}-2′-(1-methyl-1H-1,3-benzodiazol-2-yl)-[1,1′-biphenyl]-2-carboxylic acid]: the EC50 runs as follows: under setting [1], 0.101 to 0.5 µM; under setting [2], 0.101 to 0.5 µM.

`CCC[C@@H](NC(=O)c1ccc(-c2c(C)cccc2-c2nc3ccccc3[nH]2)c(C(=O)O)c1)c1ccccc1` [Example 139, 2′-(1H-1,3-benzodiazol-2-yl)-6′-methyl-4-{[(1R)-1-phenylbutyl]carbamoyl}-[1,1′-biphenyl]-2-carboxylic acid]: under setting [2], the half-maximal effective concentration (EC50) is < 0.01 µM.

For `CCC[C@@H](NC(=O)c1ccc(-c2c(F)cccc2-c2nc3ccccc3[nH]2)c(C(=O)O)c1)c1ccccc1` [Example 140, 2′-(1H-1,3-benzodiazol-2-yl)-6′-fluoro-4-{[(1R)-1-phenylbutyl]carbamoyl}-[1,1′-biphenyl]-2-carboxylic acid], the EC50 under setting [2] was < 0.01 µM.

With `CCC[C@@H](NC(=O)c1ccc(-c2c(C)cccc2-c2nc3cc(OC)ccc3[nH]2)c(C(=O)O)c1)c1ccccc1` [Example 142, 2′-(5-methoxy-1H-1,3-benzodiazol-2-yl)-6′-methyl-4-{[(1R)-1-phenylbutyl]carbamoyl}-[1,1′-biphenyl]-2-carboxylic acid], the EC50 is < 0.01 µM under setting [1] and < 0.01 µM under setting [2].

For the compound `CCC[C@@H](NC(=O)c1ccc(-c2c(F)cccc2-c2nc3cc(OC)ccc3[nH]2)c(C(=O)O)c1)c1ccccc1` [Example 143, 2′-fluoro-6′-(5-methoxy-1H-1,3-benzodiazol-2-yl)-4-{[(1R)-1-phenylbutyl]carbamoyl}-[1,1′-biphenyl]-2-carboxylic acid], the EC50 under setting [2] was < 0.01 µM.

In the case of `CCC[C@@H](NC(=O)c1ccc(-c2c(C)cccc2-c2nc3cc(C(C)(C)C)ccc3[nH]2)c(C(=O)O)c1)c1ccccc1` [Example 144, 2′-(5-tert-butyl-1H-1,3-benzodiazol-2-yl)-6′-methyl-4-{[(1R)-1-phenylbutyl]carbamoyl}-[1,1′-biphenyl]-2-carboxylic acid], the EC50 under setting [1] was < 0.01 µM and the EC50 under setting [2] was < 0.01 µM.

Take `CCC[C@@H](NC(=O)c1ccc(-c2c(F)cccc2-c2nc3cc(C(C)(C)C)ccc3[nH]2)c(C(=O)O)c1)c1ccccc1` [Example 145, 2′-(5-tert-butyl-1H-1,3-benzodiazol-2-yl)-6′-fluoro-4-{[(1R)-1-phenylbutyl]carbamoyl}-[1,1′-biphenyl]-2-carboxylic acid]: the EC50 reads like this: under setting [1], < 0.01 µM; under setting [2], < 0.01 µM.

For `CCC[C@@H](NC(=O)c1ccc(-c2c(C)cccc2-c2nc3c(O)cccc3[nH]2)c(C(=O)O)c1)c1ccccc1` [Example 148, 2′-(4-hydroxy-1H-1,3-benzodiazol-2-yl)-6′-methyl-4-{[(1R)-1-phenylbutyl]carbamoyl}-[1,1′-biphenyl]-2-carboxylic acid], the EC50 runs as follows: under setting [1], < 0.01 µM; under setting [2], < 0.01 µM.

Take `CCC[C@@H](NC(=O)c1ccc(-c2c(C)cccc2-c2nc3cnccc3[nH]2)c(C(=O)O)c1)c1ccccc1` [Example 149, 2′-{1H-imidazo[4,5-c]pyridin-2-yl}-6′-methyl-4-{[(1R)-1-phenylbutyl]carbamoyl}-[1,1′-biphenyl]-2-carboxylic acid]: the concentration giving a half-maximal response (EC50) under setting [2] is < 0.01 µM.

`CCCC(CCC)NC(=O)c1ccc(-c2c(Cl)cccc2-c2nc3ccccc3[nH]2)c(C(=O)O)c1` [Example 153, (S)-2′-(1H-1,3-benzodiazol-2-yl)-6′-chloro-4-[(heptan-4-yl)carbamoyl]-[1,1′-biphenyl]-2-carboxylic acid]: the EC50 under setting [2] lay in the range of 0.01 to 0.1 µM.

`CCOCC(NC(=O)c1ccc(-c2c(Cl)cccc2-c2nc3ccccc3[nH]2)c(C(=O)O)c1)c1ccccc1` [Example 157, (S)-2′-(1H-1,3-benzodiazol-2-yl)-6′-chloro-4-{[(1S)-2-ethoxy-1-phenylethyl]carbamoyl}-[1,1′-biphenyl]-2-carboxylic acid]: the concentration giving a half-maximal response (EC50) under setting [1] is < 0.01 µM and the EC50 under setting [2] was < 0.01 µM.

For `CCCC(NC(=O)c1ccc(-c2c(Cl)cccc2-c2nc3ccccc3[nH]2)c(C(=O)O)c1)c1cccc(Cl)c1` [Example 167, (S)-2′-(1H-1,3-benzodiazol-2-yl)-6′-chloro-4-{[1-(3-chlorophenyl)butyl]carbamoyl}-[1,1′-biphenyl]-2-carboxylic acid], the EC50 is, setting by setting: under setting [1], < 0.01 µM; under setting [3], < 0.01 µM.

Take `CC[C@H](NC(=O)c1ccc(-c2c(Cl)cccc2-c2nc3ccccc3[nH]2)c(C(=O)O)c1)c1ccc(Cl)cc1OC` [Example 170, (S)-2′-(1H-1,3-benzodiazol-2-yl)-6′-chloro-4-{[1-(4-chloro-2-methoxyphenyl)propyl]carbamoyl}-[1,1′-biphenyl]-2-carboxylic acid]: the concentration for a half-maximal effect (EC50) was < 0.01 µM under setting [1] and < 0.01 µM under setting [3].

Consider `CCC[C@H](NC(=O)c1ccc(-c2c(Cl)cccc2-c2nc3ccccc3[nH]2)c(C(=O)O)c1)c1ccccc1F` [Example 174, (S)-2′-(1H-1,3-benzodiazol-2-yl)-6′-chloro-4-{[1-(2-fluorophenyl)butyl]carbamoyl}-[1,1-biphenyl]-2-carboxylic acid], for which the EC50 runs as follows: under setting [1], < 0.01 µM; under setting [3], < 0.01 µM.

On to `CCCC(NC(=O)c1ccc(-c2c(Cl)cccc2-c2nc3ccccc3[nH]2)c(C(=O)O)c1)c1ccc(Cl)cc1OC` [Example 179, (S)-2′-(1H-1,3-benzodiazol-2-yl)-6′-chloro-4-{[1-(4-chloro-2-methoxyphenyl)butyl]carbamoyl}-[1,1′-biphenyl]-2-carboxylic acid], for which the concentration for a half-maximal effect (EC50) was < 0.01 µM under setting [1] and < 0.01 µM under setting [3].

Take `CCCC(NC(=O)c1ccc(-c2c(Cl)cccc2-c2nc3ccccc3[nH]2)c(C(=O)O)c1)c1ccccn1` [Example 180, (S)-2′-(1H-1,3-benzodiazol-2-yl)-6′-chloro-4-{[1-(pyridin-2-yl)butyl]carbamoyl}-[1,1′-biphenyl]-2-carboxylic acid]: the EC50 under setting [1] is < 0.01 µM and the 50% effective concentration (EC50) under setting [3] is < 0.01 µM.

Turning to `CCC[C@H](NC(=O)c1ccc(-c2c(Cl)cccc2-c2nc3ccccc3[nH]2)c(C(=O)O)c1)c1ccc(Cl)cc1C(F)(F)F` [Example 181, (S)-2′-(1H-1,3-benzodiazol-2-yl)-6′-chloro-4-({1-[4-chloro-2-(trifluoromethyl)phenyl]butyl}carbamoyl)-[1,1′-biphenyl]-2-carboxylic acid], the EC50 is, setting by setting: under setting [1], < 0.01 µM; under setting [3], < 0.01 µM.

Take `CCC[C@H](NC(=O)c1ccc(-c2c(Cl)cccc2-c2nc3ccccc3[nH]2)c(C(=O)O)c1)c1ccc(Cl)cc1` [Example 187, (S)-2′-(1H-1,3-benzodiazol-2-yl)-6′-chloro-4-{[1-(4-chlorophenyl)butyl]carbamoyl}-[1,1′-biphenyl]-2-carboxylic acid]: the concentration giving a half-maximal response (EC50) under setting [1] was < 0.01 µM and the concentration giving a half-maximal response (EC50) under setting [3] was < 0.01 µM.
